Molecules are shown by their SMILES.

In one assay the test system is S. mutans. As to the kind of experiment: Growth curve analysis (O.D. 595 nm). The class given is cell-based, Streptococcus mutans UA159. The conditions noted are these: for growth of S. mutans: M9 minimal medium, 50 mM as sole carbon source, 16 h; for lag phase of S. mutans: TY medium supplemented with the sugar alcohol, different concentrations. As to the method: For growth curve analysis, B. subtilis or S. mutans cultures grown as described above, were diluted (1:100 or 1:10 respectively) in TY or TY supplemented with 2% sucrose or different concentration of sorbitol or mannitol. When needed, the bacteria were diluted in M9 medium with 0.2% glucose or 50 mM sorbitol/mannitol. The cultures were then incubated at 37° C. overnight with slight shaking. The growth was recorded every hour using optical density measurement at 595 nm (infinite […]).

Assay [1] concerns mltD (mannitol-1-phosphate 5-dehydrogenase). Kind of assay: Relative gene expression by real-time RT-PCR. It is filed as cell-based, B. subtilis. The conditions noted are these: TY with 50 mM sugar alcohol vs TY alone (=1). The protocol: (§1) The cultures of either B. subtilis or S. mutans grown as described above, were diluted (1:100 or 1:10 respectively) in TY or TY supplemented with 50 mM sorbitol or mannitol. Next, B. subtilis were grown 37° C. at 150 rpm while S. mutans at 37° C. in 95% air/5% CO2. Samples for each treatment were taken after 3, 6, 12, 18 and 24 hours. One mL of RNA protect (Qiagen, Hilden, Germany) was added to each sample and incubated at RT for 5 min. After, the cells were centrifuged at 4,000×g for 10 min. RNA extraction preformed using GenUP total RNA kit (biotechrabbit, Hennigsdorf, Germany) according to the manufacture's protocol. Reverse transcription was performed using qScript cDNA synthesis kit (Quantabio, Beverly, Mass., USA).The synthesized cDNA was later used for the real-time PCR analysis of key enzymes in the metabolic pathway of S. mutans and B. subtilis (Sorbitol dehydrogenase (gutB) or Mannitol-1-phosphate 5-dehydrogenase (mltD)). The RT-PCR reaction was performed as described previously^33. Briefly, RT-PCR reaction mixture (20 μL) contained 1×SYBR Green (Invitrogen, California, USA), 1 μL cDNA sample and […] of the appropriate forward and reverse PCR primers. PCR conditions included an initial denaturation at 95° C. for 10 min, followed by a 40-cycles of amplification, consisting of denaturation at 95° C. for 15 s and annealing and extension at 60° C. for 1 min. Contamination by residual genomic DNA was determined from control reactions devoid of reverse transcriptase. The expression levels of all the tested genes by real-time PCR were normalized using the 16S rRNA gene of S. mutans as an internal standard ([…] et al., 2007) or sigA gene for B. subtilis.
For orientation: Quantitative PCR measures a nucleic acid by following its amplification.

The subject of the next assay is S. mutans biofilm. As to the kind of experiment: Mono and dual-species biofilm formation, biofilm biomass by Crystal Violet staining. The class given is cell-based, Streptococcus mutans UA159. The settings on record: S. mutans cultured as monospecies in TY with the sugar alcohol, 24 h. The protocol:
For B. subtilis mono-species biofilm, a starter culture was diluted 1:100 (to obtain final O.D (600 nm)=0.07)) into TY or TY supplemented with either 2% sucrose or sorbitol or mannitol at various concentrations (10, 25,50,100 or 125 mM) in 96-well plate (Nunc, Roskilde, Denmark). The plate was incubated at 37° C. in 95% air/5% CO2 for 24 h.
For S. mutans mono-species biofilm, overnight cultured S. mutans (O.D (600 nm)=1)) were diluted 1:10 into TY or TY supplemented with 2% sucrose (served as controls) or TY supplemented with different concentration of sorbitol or mannitol (10, 25,50,100 or 125 mM) into 96-well plate (Nunc). The plate was incubated at 37° C. in 95% air/5% CO2 for 24 h. For dual-species biofilm, cells of B. subtilis and S. mutans were grown into 96-well plate as follows: to fresh TY or TY supplemented with 2% sucrose or different concentration of sorbitol or mannitol (10, 25, 50, 100 or 125 mM) were introduced overnight cultured S. mutans (diluted by a ratio 1:10, approximately 2.5×10^7 CFU) and B. subtilis (diluted by a ratio 1:100, approximately 2.5×10^5 CFU). […]
The generated submerged biofilms were washed carefully twice with saline solution. […] The extract was placed in a new 96-well plate and O.D. at 595 nm was measured using a plate reader instrument (infinite PRO2000, NEOTEC Scientific Instrumentation Ltd. Camspec, Cambridge, United Kingdom)^31,32.

In assay [2] the test system is gutB (sorbitol dehydrogenase). As to the kind of experiment: Relative gene expression by real-time RT-PCR. The conditions noted are these: TY with 50 mM sugar alcohol vs TY alone (=1). It is filed as cell-based, B. subtilis. As to the method:
as §1

In the case of `OC[C@@H](O)[C@@H](O)[C@H](O)[C@H](O)CO` [mannitol], in the assay on S. mutans, the “growth of S. mutans” value is listed as “did not grow” and the “lag phase of S. mutans” value is “approximately 3 hours”. The “maximal induction rate of mltD” value in assay [1] (after 3 hours) worked out at 1.6 folds. Also, in assay [1] (after 6 hours until 24 hours), the “induction of mltD” value is 1.2 fold. In addition, the “S. mutans monospecies biofilm compared to the TY control” value in the assay on S. mutans biofilm is reported as “enhanced biofilm”.

For the compound `OC[C@@H](O)[C@@H](O)[C@H](O)[C@@H](O)CO` [sorbitol], in the assay on S. mutans, the “growth of S. mutans” value is on record as “did not grow” and the “lag phase of S. mutans” value is “approximately 3 hours”. Further, the “maximal induction rate of gutB” value in assay [2] (after 3 hours) stood at 2 folds. The “induction of gutB” value in assay [2] (after 6 hours until 24 hours) is on record as 1.6 fold. Further, the “S. mutans monospecies biofilm compared to the TY control” value in the assay with S. mutans biofilm is recorded as “enhanced biofilm”.
